Here are results for 4 compounds from patent publication US8729047B2, “Compositions for inhibiting redox-sensitive GTPases” (Board of Regents, The University of Texas System, priority 2010, dated 2014).

Like-named read-outs stand apart in the source and are kept apart here.

In experiment [1] the test system is Ras. The experiment is described as follows: Ras expression and activity in T24 / HT1080 cells. The settings on record: T24 and HT1080 cells, 8-TG 1 μM with NO donor; not shown. Type of experiment: cell-based, human. The procedure:
(§1) FIG. 8. Examination of Ras and Raf-1 activity in T24 cells treated with various reagents. […] The total Raf-1 expression also was determined using an anti-Raf-1 antibody. Actin expression in cells was shown as controls.

In experiment [2] the target is T1, RhoA (Homo sapiens, UniProt P61586).
T1 construct: made in house; host or cells: E. coli
T1 sequence (P61586 whole entry, species assumed): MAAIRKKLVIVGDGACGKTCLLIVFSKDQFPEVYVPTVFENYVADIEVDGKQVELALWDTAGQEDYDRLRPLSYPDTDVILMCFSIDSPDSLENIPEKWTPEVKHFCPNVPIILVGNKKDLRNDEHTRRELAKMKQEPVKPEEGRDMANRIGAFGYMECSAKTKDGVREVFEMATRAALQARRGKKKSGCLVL
The settings on record: determined previously; read-out: trueKD GDP; cited from earlier work.

The target in experiment [3] is T2, C20S RhoC (Homo sapiens, UniProt P08134, C20S).
T2 construct: made in house; host or cells: E. coli
T2 sequence (P08134 whole entry C20S): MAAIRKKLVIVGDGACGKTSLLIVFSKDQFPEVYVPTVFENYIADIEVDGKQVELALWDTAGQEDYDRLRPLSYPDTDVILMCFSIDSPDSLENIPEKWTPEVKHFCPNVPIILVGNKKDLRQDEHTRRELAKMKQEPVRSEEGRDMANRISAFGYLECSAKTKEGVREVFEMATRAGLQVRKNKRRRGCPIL
The experiment can be described thus: Titration of .NO2-treated RhoC-6-TGDP complex with [3H]GDP with/without DTT (FIG. 16D). Type of experiment: binding. The settings on record: .NO2-treated 6-TGDP C20S RhoC complex, read-out: appKD for [3H]GDP. The procedure: (§2) FIG. 16. Kinetic properties of RhoC with 6-TGDP in the presence or absence of a redox agent. All kinetic analyses are described elsewhere herein. (A) ^appKD values of Rac1, RhoA, RhoC, and RhoC C20S for 6-TGDP were estimated to be 7.9, 11.6, 11.8, and 11.2 μM, respectively. ^trueKD values of Rac1, RhoA, and RhoC for 6-TGDP were then calculated to be 5.1, 10.8, 11.1, and 10.5 μM, respectively, by using a compensation equation, ^trueKD for 6-TGDP=^appKD for 6-TGDP/(1+[[^3H]GDP]/^trueKD for GDP) (Heo, J., and Hong, I. (2010) Biochemistry 49, 3965-3976), in conjunction with the values given. […] The GDP dissociation rates from RhoC C20S by NO, .NO2, and N2O3 were estimated to be 0.02×10^−3, 0.05×10^−3, and 0.04×10^−3 s^−1, respectively. […] (D) ^appKD values of RhoC for [^3H]GDP in the presence or absence of DTT were estimated to be 22.4 μM and […], respectively. ^appKD values of C20S RhoC for [^3H]GDP in the presence or absence of DTT were determined to be 24.8 μM and 25.2 μM, respectively. The regression values associated with these fits were >0.8595. […]
(§3) (d) The effect of .NO2 on the dissociation of 6-TGDP from RhoC was determined by treating the RhoC-6-TGDP complex titration with various concentrations of [^3H]GDP in the presence and absence of a reducing agent of either dithiothreitol (DTT) or β-mercaptoethanol. […]

The target in experiment [4] is RhoC (Homo sapiens, UniProt P08134). The experiment is described as above. The settings on record: presence of DTT; .NO2-pretreated 6-TGDP-loaded RhoC; read-out: appKD for [3H]GDP. Type of experiment: binding. The arrangement: made in house; host or cells: E. coli. The procedure: as §2, §3
Chain of RhoC (P08134 whole entry): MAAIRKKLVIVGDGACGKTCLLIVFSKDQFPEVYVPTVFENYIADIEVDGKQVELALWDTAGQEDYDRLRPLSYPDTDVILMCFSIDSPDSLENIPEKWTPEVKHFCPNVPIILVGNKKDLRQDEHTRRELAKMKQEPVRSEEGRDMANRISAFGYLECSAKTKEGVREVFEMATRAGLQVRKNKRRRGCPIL
Experiment [5] addresses T3, Ras (Homo sapiens, UniProt P01112, G12V).
T3 construct: endogenous in cells; text also names HT1080
The experiment can be described thus: Ras expression and activity in T24 / HT1080 cells. Type of experiment: cell-based. The note with it: T24 (or HT1080) cells, 6-TG 1 μM every 48 h and DETA/NO 10 μM every 20 h, longer than 10 days; FIG. 8. Here is the method:
as §1

For experiment [6], the system named is SUM149 cells. The experiment can be described thus: MTT cell viability and caspase-3/8 assays. Type of experiment: cell-based, human. The text has this:
FIG. 25. […] (B) Caspase-3/8 assay: the apoptotic activity of sample cells treated with the apoptotic inducer was set to be 100%, and other results were then expressed as normalized values against the mean value associated with the treatment with the apoptotic inducer. For both (A) and (B), all values represent the mean values and standard error values from triplicate measurements.

In experiment [7] the test system is Rho proteins. The experiment can be described thus: Binding affinity of 6-TGDP compared with GDP (Example 3). The settings on record: all examined Rho proteins; FIG. 16A. The procedure:
(a) A competitive binding assay was performed to determine the binding affinity of Rho GTPase and 6-TGDP. The radiolabeled [^3H]GDP-loaded Rho protein (1 μM) was titrated with various concentrations of 6-TGDP. The titrated Rho protein sample then was spotted onto a nitrocellulose membrane. Each membrane was washed three times with the assay buffer, and radioactivity was determined using a Beckman-Coulter scintillation counter. The radioactivity of the sample (Rho protein-bound [^3H]GDP) was converted into, and thus plotted, as the fraction of mol GDP per mol total Rho protein. The apparent dissociation constant (^appKD) of the Rho protein with [^3H]GDP in the presence of 6-TGDP was determined by using Prism software to fit the titration curve to a hyperbola.
The RhoC and mutant RhoC bound GDP also can be competitively displaced with 6-TGDP (FIG. 16A). The binding affinities that 6-TGDP has for all of these examined Rho proteins are ˜2-fold weaker than that of GDP for Rho proteins (FIG. 16A).

`Nc1nc2[nH]c(S)nc2c(=O)[nH]1` [8-TG, 2-amino-8-mercapto-1H-purin-6(9H)-one]: in experiment [1], the “expression and activity of Ras” value is “virtually unchanged”.
With `Nc1nc2c(ncn2[C@@H]2O[C@H](COP(=O)(O)OP(=O)(O)O)[C@@H](O)[C@H]2O)c(=O)[nH]1` [GDP], the Kd in experiment [2] is 13 µM; in experiment [3] (absence of DTT), 25.2 µM; in experiment [3] (presence of DTT) it was 24.8 µM; in experiment [4], 22.4 µM.
With `Nc1nc2nc[nH]c2c(=S)[nH]1` [6-TG, 6-thioguanine], the Ras inactivation result in experiment [5] was “significant amount of Ras (per cell mass) was inactivated”. The “apoptotic effect (caspase, FIG. 25B)” value in experiment [6] (6-TG) is listed as “minimal”. Further, the “viability and caspase activity” value in experiment [6] (6-TG and DETA/NO, FIG. 25) is given as “minimally affected”. In addition, the “cell viability (MTT, FIG. 25A)” value in experiment [6] (6-TG for 3 days) was “minimally affected”.
Turning to `Nc1nc2c(ncn2[C@@H]2O[C@H](COP(=O)(O)OP(=O)(O)O)[C@@H](O)[C@H]2O)c(=S)[nH]1` [6-TGDP, 6-thioguanosine diphosphate], in experiment [7], the “binding affinity of 6-TGDP weaker than that of GDP” value is recorded as ~2 fold.
